Columns and labels:
NagZ = target: T1, NagZ (Caulobacter vibrioides, UniProt A0A0H3C9G9); assay: preincubation with NagZ, then coupled AmiR step and LC-MS; type: biochemical; conditions: 10 µM NagZ, 50 mM HEPES, 200 mM NaCl, 10% glycerol, pH 7.2, 37 °C, 16 hr
T1 construct: gene CCNA_02085; His6-SUMO fusion expressed in E. coli Rosetta(DE3)pLysS, tag cut by SUMO protease

AmiR = target: T2, AmiR (Caulobacter vibrioides, UniProt A0A0H3CAA9); assay: HPLC of reaction products; type: biochemical; conditions: 20 mM HEPES-NaOH, 50 mM NaCl, 1 mM MgCl2, pH 7.5, 37 °C, 16 hr; mixture of anhydro-muropeptides from Slt70-digested sacculi
T2 construct: gene CCNA_02650; His6-SUMO fusion expressed in E. coli Rosetta(DE3)pLysS, tag cut by SUMO protease
T2 sequence (A0A0H3CAA9 entry or part of it): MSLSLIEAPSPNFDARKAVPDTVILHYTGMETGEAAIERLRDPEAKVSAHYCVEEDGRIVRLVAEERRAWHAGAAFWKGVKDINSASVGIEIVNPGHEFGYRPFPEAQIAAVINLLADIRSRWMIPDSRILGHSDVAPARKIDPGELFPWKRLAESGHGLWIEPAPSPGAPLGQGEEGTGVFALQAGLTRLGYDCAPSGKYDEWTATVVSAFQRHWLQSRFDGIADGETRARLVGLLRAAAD

PBP3 = target: T3, PBP3 (Caulobacter vibrioides, UniProt B8H0A0); assay: competition with bocillin-FL labelling, SDS-PAGE fluorescence; type: cell-based; conditions: covalent, crude membranes in PBS
T3 construct: gene ftsI; native protein in crude membrane fraction, gel band
T3 sequence (B8H0A0 1-589): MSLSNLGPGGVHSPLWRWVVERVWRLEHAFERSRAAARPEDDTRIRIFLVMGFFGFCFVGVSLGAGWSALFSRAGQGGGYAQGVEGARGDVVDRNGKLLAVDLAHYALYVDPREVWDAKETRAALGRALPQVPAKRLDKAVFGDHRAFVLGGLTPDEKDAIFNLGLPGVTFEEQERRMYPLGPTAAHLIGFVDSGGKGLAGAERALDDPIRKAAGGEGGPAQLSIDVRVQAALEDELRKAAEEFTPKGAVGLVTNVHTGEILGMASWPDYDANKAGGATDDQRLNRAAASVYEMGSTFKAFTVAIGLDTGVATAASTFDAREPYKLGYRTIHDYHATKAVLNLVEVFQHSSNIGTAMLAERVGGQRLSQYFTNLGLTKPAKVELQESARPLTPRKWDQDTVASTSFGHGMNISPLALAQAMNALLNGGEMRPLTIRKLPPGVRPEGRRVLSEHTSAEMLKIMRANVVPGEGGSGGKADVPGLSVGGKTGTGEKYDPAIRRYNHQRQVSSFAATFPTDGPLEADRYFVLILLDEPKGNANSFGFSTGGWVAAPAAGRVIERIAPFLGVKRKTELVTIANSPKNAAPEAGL

CrbA = target: T4, CrbA (Caulobacter vibrioides, UniProt A0A0H3C8K5); assay: as above; type: cell-based; conditions: covalent; crude membranes in PBS, 1-100 µg/mL ampicillin for 2 hr at room temperature, active-site serine
T4 construct: native protein in crude membrane fraction, gel band
T4 sequence (A0A0H3C8K5 entry or part of it): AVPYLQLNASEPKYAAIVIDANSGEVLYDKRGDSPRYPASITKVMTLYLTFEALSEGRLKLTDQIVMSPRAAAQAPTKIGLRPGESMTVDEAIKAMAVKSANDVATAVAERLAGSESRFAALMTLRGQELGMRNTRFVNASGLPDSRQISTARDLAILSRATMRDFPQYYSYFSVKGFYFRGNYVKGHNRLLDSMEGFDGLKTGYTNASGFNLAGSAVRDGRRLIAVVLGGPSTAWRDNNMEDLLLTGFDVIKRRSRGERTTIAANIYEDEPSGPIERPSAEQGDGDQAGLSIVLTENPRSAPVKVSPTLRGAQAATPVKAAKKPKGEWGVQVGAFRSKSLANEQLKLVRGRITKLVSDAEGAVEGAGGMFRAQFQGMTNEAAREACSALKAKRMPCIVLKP

T1 sequence (A0A0H3C9G9 entry or part of it): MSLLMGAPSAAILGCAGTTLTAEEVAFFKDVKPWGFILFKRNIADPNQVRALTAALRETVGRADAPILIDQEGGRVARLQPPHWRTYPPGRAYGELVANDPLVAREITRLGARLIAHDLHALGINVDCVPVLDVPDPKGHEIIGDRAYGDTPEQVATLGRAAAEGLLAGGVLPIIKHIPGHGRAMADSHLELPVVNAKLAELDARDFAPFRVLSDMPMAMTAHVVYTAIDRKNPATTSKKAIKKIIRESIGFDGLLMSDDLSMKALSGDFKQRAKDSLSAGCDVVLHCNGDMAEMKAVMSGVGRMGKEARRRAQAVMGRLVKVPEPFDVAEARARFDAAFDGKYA

**Q.** What does the source list for `CC(=O)N[C@H]1[C@H](O[C@H]2[C@H](O[C@H](C)C(=O)N[C@@H](C)C(=O)N[C@H](CCC(=O)N[C@@H](CCC[C@@H](N)C(=O)O)C(=O)N[C@H](C)C(=O)O)C(=O)O)[C@@H](NC(C)=O)[C@@H]3OC[C@H]2O3)O[C@H](CO)[C@@H](O)[C@@H]1O` [GlcNAc–anhMurNAc-tetrapeptide]?
**A.** preincubation with NagZ, then coupled AmiR step and LC-MS (NagZ): substrate anhMurNAc-tetrapeptide, generated by preincubating purified GlcNAc–anhMurNAc-tetrapeptide with NagZ; HPLC of reaction products (AmiR): AmiR efficiently hydrolyzed tetrapeptide-containing fragments

**Q.** How did the “competition with bocillin-FL labelling, SDS-PAGE fluorescence” value (shortened to “competition with bocillin-FL labelling”) (PBP3; 1-100 µg/mL ampicillin for 2 hr at room temperature, active-site serine) turn out when `CC1(C)S[C@@H]2[C@H](NC(=O)[C@H](N)c3ccccc3)C(=O)N2[C@H]1C(=O)O` [ampicillin] was run?
**A.** Among the ampicillin targets identified were the essential, cell division-specific monofunctional transpeptidase PBP3

**Q.** What about the “competition with bocillin-FL labelling” value (CrbA) of the same molecule?
**A.** all but one of them (PbpX) remained unlabeled

**Q.** `CC1=C(C(=O)O)N2C(=O)[C@@H](NC(=O)[C@H](N)c3ccccc3)[C@H]2SC1` [cephalexin] was tested. Which “competition with bocillin-FL labelling” value (PBP3; 5 µg/mL cefalexin for 2 hr at room temperature) did it give?
**A.** The labeling of PBP3 and some bifunctional PBPs was also abolished by preincubation with cephalexin
